Bounds are passed on as bounds.

In this assay the target is USP14 (Homo sapiens, UniProt P54578). The assay can be described thus: USP14 Inhibition Assay. Type of assay: biochemical. The note with it: average value from a minimum of two experimental determinations, read-out: IC50 Category. The source says:
The activity of the compound described herein to inhibit USP14 can be measured using previously described methodology [B. H. Lee et al. Nature 2010, 467 (9), 179, the contents of which are expressly incorporated by reference herein].
Example 6: USP14 Inhibition Assay
`Cc1cc(C(=O)CN2CCCCC2)c(C)n1CC(F)(F)F` [Compound 107, 1-(2,5-Dimethyl-1-(2,2,2-trifluoroethyl)-1H-pyrrol-3-yl)-2-(piperidin-1-yl)ethanone]: the IC50 (as a rule, the point on the concentration scale where inhibition reaches its midpoint) is greater than 5 µM.
The value for `Cc1cc(C(=O)CN2CCCCC2)c(C)n1-c1ccc(C(=O)OCc2ccccc2)cc1` [Compound 110, trans-Benzyl 4-(2,5-dimethyl-3-(2-(piperidin-1-yl)acetyl)-1H-pyrrol-1-yl)benzoate] was greater than 5 µM.
Then `Cc1cc(C(=O)CN2CCC(O)CC2)c(C)n1-c1ccc(C(=O)OCc2ccccc2)cc1` [Compound 111, trans-Benzyl 4-(3-(2-(4-hydroxypiperidin-1-yl)acetyl)-2,5-dimethyl-1H-pyrrol-1-yl)benzoate], with greater than 5 µM.
Then `CCc1ccc(C(=O)CN2CCCCC2)n1-c1ccc(C#N)cc1` [Compound 112, 4-(2-Ethyl-5-(2-(piperidin-1-yl)acetyl)-1H-pyrrol-1-yl)benzonitrile], with greater than 5 µM.
Regarding `Cc1cc(C(=O)CN2CCC(O)CC2)c(C)n1-c1ccc(C(=O)O)cc1` [Compound 113, 4-(3-(2-(4-Hydroxypiperidin-1-yl)acetyl)-2,5-dimethyl-1H-pyrrol-1-yl)benzoic acid], the IC50 was greater than 5 µM.
Then `Cc1cc(C(=O)CN2CCCCC2)c(C)n1-c1ccc(C(=O)O)cc1` [Compound 114, 4-(2,5-Dimethyl-3-(2-(piperidin-1-yl)acetyl)-1H-pyrrol-1-yl)benzoic acid], with greater than 5 µM; and `CC(=O)c1c(CN2CCCCC2)c(C)n(-c2ccc(C#N)cc2)c1C` [Compound 117, 4-(3-Acetyl-2,5-dimethyl-4-(piperidin-1-ylmethyl)-1H-pyrrol-1-yl)benzonitrile], with greater than 5 µM; and `Cc1cc(C(=O)CN2CCCCC2)c(C)n1[C@H]1CC[C@H](C(=O)O)CC1` [Compound 121, trans-4-(2,5-Dimethyl-3-(2-(piperidin-1-yl)acetyl)-1H-pyrrol-1-yl)cyclohexane-1-carboxylic acid], with greater than 5 µM.
Then `Cc1cc(C(=O)CN2CCCCC2)c(C)n1[C@H]1CC[C@H](C(N)=O)CC1` [Compound 122, trans-4-(2,5-Dimethyl-3-(2-(piperidin-1-yl)acetyl)-1H-pyrrol-1-yl)cyclohexane-1-carboxamide], with greater than 5 µM; and `Cc1cc(C(=O)CNCC(O)CO)c(C)n1-c1ccc(C#N)cc1` (centres unmarked) [Compound 134, 4-(3-(2-((2,3-Dihydroxypropyl)amino)acetyl)-2,5-dimethyl-1H-pyrrol-1-yl)benzonitrile], with 0.5 to 5 µM.
Regarding `Cc1cc(C(=O)CN2CCC(CNC(=O)OC(C)(C)C)CC2)c(C)n1-c1ccc(C#N)cc1` [Compound 135, tert-butyl ((1-(2-(1-(4-Cyanophenyl)-2,5-dimethyl-1H-pyrrol-3-yl)-2-oxoethyl)piperidin-4-yl)methyl)carbamate], the IC50 was 0.5 to 5 µM.
Then `CC#Cc1ccc(-n2c(C)cc(C(=O)CN3CCCCC3)c2C)cc1` [Compound 136, 1-(2,5-Dimethyl-1-(4-(prop-1-yn-1-yl)phenyl)-1H-pyrrol-3-yl)-2-(piperidin-1-yl)ethanone], with 0.5 to 5 µM; and `Cc1c(C(=O)CN2CCCCC2)c(C)n(-c2ccc(Cl)cc2)c1C` [Compound 137, 1-(1-(4-Chlorophenyl)-2,4,5-trimethyl-1H-pyrrol-3-yl)-2-(piperidin-1-yl)ethanone], with 0.5 to 5 µM; and `Cc1cc(C(=O)CN(C)CCCCC(N)C(=O)O)c(C)n1-c1ccc(C#N)cc1` (centres unmarked) [Compound 138, 2-Amino-6-((2-(1-(4-cyanophenyl)-2,5-dimethyl-1H-pyrrol-3-yl)-2-oxoethyl)(methyl)amino)hexa-noic acid], with 0.5 to 5 µM.
Then `Cc1c(C(=O)CN2CCC(O)CC2)c(C)n(-c2ccc(Cl)cc2)c1C` [Compound 139, 1-(1-(4-Chlorophenyl)-2,4,5-trimethyl-1H-pyrrol-3-yl)-2-(4-hydroxypiperidin-1-yl)ethanone], with 0.5 to 5 µM; and `CC#Cc1ccc(-n2c(C)cc(C(=O)CN3CCC(O)CC3)c2C)cc1` [Compound 140, 1-(2,5-Dimethyl-1-(4-(prop-1-yn-1-yl)phenyl)-1H-pyrrol-3-yl)-2-(4-hydroxypiperidin-1-yl)ethanone], with 0.5 to 5 µM.
Then `Cc1cc(C(=O)CN2CCCCC2)c(C)n1[C@H]1CC[C@H](C#N)CC1` [Compound 143, trans-4-(2,5-Dimethyl-3-(2-(piperidin-1-yl)acetyl)-1H-pyrrol-1-yl)cyclohexane-1-carbonitrile], with 0.5 to 5 µM.
For the compound `Cc1cc(C(=O)CN2CCC(CN)CC2)c(C)n1-c1ccc(C#N)cc1` [Compound 157, 4-(3-(2-(4-(Aminomethyl)piperidin-1-yl)acetyl)-2,5-dimethyl-1H-pyrrol-1-yl)benzonitrile], the IC50 was less than 0.5 µM.
As to `Cc1cc(C(=O)CN2CCCC(CNC(=O)OC(C)(C)C)C2)c(C)n1-c1ccc(C#N)cc1` (centres unmarked) [Compound 158, tert-butyl ((1-(2-(1-(4-cyanophenyl)-2,5-dimethyl-1H-pyrrol-3-yl)-2-oxoethyl)piperidin-3-yl)methyl)carbamate], the half-inhibitory concentration (IC50) is less than 0.5 µM.
Then `Cc1cc(C(=O)CN2CCCC(CN)C2)c(C)n1-c1ccc(C#N)cc1` (centres unmarked) [Compound 159, 4-(3-(2-(3-(Aminomethyl)piperidin-1-yl)acetyl)-2,5-dimethyl-1H-pyrrol-1-yl)benzonitrile], with less than 0.5 µM.

The values above are taken from patent publication US11746098B2, “Proteasome activity enhancing compounds” (Proteostasis Therapeutics, Inc., priority 2018, dated 2023).
